Experimental data as given in publication PMC13304707 (Acta Pharmaceutica Sinica. B, 2025).

Legend:
VPS34 = settings: read-out: enzymatic inhibitory potency against VPS34; ref [30], [31], [32], [33]; cited from earlier work
[1] = Cell cytotoxicity, CCK-8 assay; assay type: cell-based; settings: African green monkey, Vero E6 cells
[2] = Plasma PK profile after single intraperitoneal injection; assay type: in vivo, C57BL/6 mice
CYP3A4 = CYP3A4 (Homo sapiens, UniProt P08684); test: Screening of cytochrome P450 enzymes responsible for degradation; assay type: in vitro ADME; settings: liver microsomes, CYP450 screening
[3] = Degradation in liver microsomes; assay type: in vitro ADME
[4] = Tissue distribution after ip administration; assay type: in vivo, mice; settings: 10 mg/kg ip

Chain of CYP3A4 (P08684 whole entry, species assumed): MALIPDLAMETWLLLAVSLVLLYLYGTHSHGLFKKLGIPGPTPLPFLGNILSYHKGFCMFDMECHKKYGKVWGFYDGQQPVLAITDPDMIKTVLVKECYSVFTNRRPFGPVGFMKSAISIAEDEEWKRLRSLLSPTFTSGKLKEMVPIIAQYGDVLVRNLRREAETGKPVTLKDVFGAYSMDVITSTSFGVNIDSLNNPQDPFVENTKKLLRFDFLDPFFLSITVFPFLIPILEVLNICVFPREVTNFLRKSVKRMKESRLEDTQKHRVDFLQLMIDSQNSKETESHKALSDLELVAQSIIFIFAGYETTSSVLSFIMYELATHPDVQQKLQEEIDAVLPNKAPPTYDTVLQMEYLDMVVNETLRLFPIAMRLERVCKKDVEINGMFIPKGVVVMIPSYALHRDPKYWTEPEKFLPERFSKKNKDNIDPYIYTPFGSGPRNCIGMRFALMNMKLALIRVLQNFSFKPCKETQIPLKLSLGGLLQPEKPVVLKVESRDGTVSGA

Row | AUC(0-t) ([2]; C57BL/6, mouse, ip, 10 mg/kg) | Cmax ([2]; C57BL/6, mouse, ip, 10 mg/kg) | half-life ([2]; C57BL/6, mouse, ip, 10 mg/kg) | Tmax ([2]; C57BL/6, mouse, ip, 10 mg/kg, Tmax, mice, 10 mg/kg ip) | CL ([2]; mice, 10 mg/kg ip) | degradation upon addition of 6β-hydroxytestosterone, a specific inhibitor of CYP3A4 (CYP3A4) | time to extensive degradation to minimal levels in liver microsomes [3] | time to Cmax in tissues (cardiorespiratory and renal systems) [4] | Structure (SMILES) | IC50 (VPS34) | CC50 at 48 h [1]
1 | – | – | – | – | – | – | – | – | Nc1ncc(-c2ccnc(Nc3ccncc3)n2)c(CC2CC2)n1 [PIK-III] | 0.018 µM | 45.8 µM
2 | […] | 5820 ± 723 ng/mL | […] | 8.4 ± 6 min | […] | almost completely attenuated | […] | ≤ 10 min | C[C@@H]1COCCN1c1cc(=O)n2c(n1)N(Cc1cncc(Cl)c1)[C@H](C(F)(F)F)CC2 [SAR405] | […] | […]
3 | – | – | – | – | – | – | – | – | CC(C)(O)CNc1ncc(-c2ccnc(Nc3ccnc(Cl)c3)n2)c(CC2CC2)n1 [VPS34-IN-1] | 0.025 µM | 11 µM
4 | – | – | – | – | – | – | – | – | CC(C)C(=O)CN1c2nc(N3CCOC[C@H]3C)cc(=O)n2CC[C@H]1C(F)(F)F [VPS34-IN-2, (2S)-8-[(3R)-3-methylmorpholin-4-yl]-1-(3-methyl-2-oxobutyl)-2-(trifluoromethyl)-3,4-dihydro-2H-pyrimido[1,2-a]pyrimidin-6-one] | – | 54.5 µM
